Patent US10828301B2, “2,4-pyrimidinediamine compounds and their uses” (Rigel Pharmaceuticals, Inc, priority 2002, dated 2020)

Legend:
[1] = test system: cultured human mast cells (CHMC); assay: CHMC low cell density IgE activation: tryptase and LTC4 assays; type: cell-based; details: Low Density CHMC, anti-IgE activation, tryptase readout, read-out: CHMC anti-IgE Tryptase
Method in brief: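 Cultured human mast cells at low density (1000-1500 per well) rested 1 h at 37° C, then stimulated with anti-IgE for 30 min at 37° C. Supernatant tryptase measured with fluorogenic substrate (30 min, room temperature); LTC4 quantified by ELISA on diluted supernatant.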

[2] = test system: cultured human mast cells (CHMC); assay: CHMC low cell density ionomycin activation: tryptase assay; type: cell-based; details: Low Density CHMC, ionomycin activation, tryptase readout, read-out: CHMC Ionomycin Tryptase

IC50 ([1]; Homo sapiens, Mast cell) [µM] | IC50 ([2]; Homo sapiens, Mast cell) [µM] | IC50 [1] [µM] | IC50 [2] [µM] | Structure (SMILES)
4.15 | > 10 |  |  | COCCOc1cccc(Nc2ncc(F)c(Nc3cccc(OCCOC)c3)n2)c1 [Compound R935076, N2,N4-Bis[3-(2-methoxyethyl)oxyphenyl]-5-fluoro-2,4-pyrimidinediamine]
> 10 | > 10 |  |  | CC(C)c1ccc(O)cc1Nc1ncc(F)c(Nc2cc(O)ccc2C(C)C)n1 [Compound R935077, N2,N4-Bis(5-hydroxy-2-isopropylphenyl)-5-fluoro-2,4-pyrimidinediamine]
0.479 | > 10 |  |  | CC(C)Oc1ccc(Nc2nc(Nc3ccc(C(C)(C)CO)cc3)ncc2F)cc1 [Compound R935151, 5-Fluoro-N2-[4-(2-hydroxy-1,1-dimethylethyl)phenyl]-N4-(4-isopropoxyphenyl)-2,4-pyrimidinediamine]
0.551 | > 10 |  |  | CC(C)(CO)c1ccc(Nc2nc(Nc3ccc(OCCO)cc3)ncc2F)cc1 [Compound R935158, 5-Fluoro-N4-[4-(2-hydroxy-1,1-dimethylethyl)phenyl]-N2-[4-(2-hydroxyethoxy)phenyl]-2,4-pyrimidinediamine]
0.277 | > 10 |  |  | CC(C)(CO)c1ccc(Nc2nc(Nc3cccc(OCCO)c3)ncc2F)cc1 [Compound R935161, 5-Fluoro-N4-[4-(2-hydroxy-1,1-dimethylethyl)phenyl]-N2-[3-(2-hydroxyethoxy)phenyl]-2,4-pyrimidinediamine]
0.488 | 9.48 |  |  | CC(C)Oc1ccc(Nc2ncc(F)c(Nc3ccc(C(C)(C)CO)cc3)n2)cc1 [Compound R935168, 5-Fluoro-N4-[4-(2-hydroxy-1,1-dimethylethyl)phenyl]-N2-(4-isopropoxyphenyl)-2,4-pyrimidinediamine]
0.673 | > 10 |  |  | OCCOc1cccc(Nc2nc(Nc3cccc(O)c3)ncc2F)c1 [Compound R935170, 5-Fluoro-N4-[3-(2-hydroxyethoxy)phenyl]-N2-(3-hydroxyphenyl)-2,4-pyrimidinediamine]
1.39 | 6.81 |  |  | CCOC(=O)C(C)(C)c1ccc(Nc2nc(Nc3ccc4c(c3)OCCO4)ncc2F)cc1 [Compound R935172, N4-[4-[Ethoxycarbonyl(dimethyl)methyl]phenyl]-N2-(3,4-ethylenedioxyphenyl)-5-fluoro-2,4-pyrimidinediamine]
1.38 | > 10 |  |  | OCCOc1ccc(Nc2ncc(F)c(Nc3ccc4oc(CO)cc4c3)n2)cc1 [Compound R935174, 5-Fluoro-N2-[4-(2-hydroxyethoxy)phenyl]-N4-(2-hydroxymethylbenzofur-5-yl)-2,4-pyrimidinediamine]
0.885 | > 10 |  |  | CC(C)Oc1ccc(Nc2nc(Nc3ccc(OCC(O)CO)cc3)ncc2F)cc1 (centres unmarked) [Compound R935175, N2-[4-(2,3-Dihydroxypropoxy)phenyl]-5-fluoro-N4-(4-isopropoxyphenyl)-2,4-pyrimidinediamine]
1.17 | > 10 |  |  | OCCOc1cccc(Nc2nc(Nc3ccc4c(c3)OCCO4)ncc2F)c1 [Compound R935176, N2-(3,4-Ethylenedioxyphenyl)-5-fluoro-N4-[3-(2-hydroxyethoxy)phenyl]-2,4-pyrimidinediamine]
0.515 | > 10 |  |  | OCCOc1cccc(Nc2ncc(F)c(Nc3ccc4oc(CO)cc4c3)n2)c1 [Compound R935178, 5-Fluoro-N2-[3-(2-hydroxyethyloxy)phenyl]-N4-(2-hydroxymethylbenzofur-5-yl)-2,4-pyrimidinediamine]
1.22 | > 10 |  |  | OCC(O)COc1ccc(Nc2ncc(F)c(Nc3cccc(O)c3)n2)cc1 (centres unmarked) [Compound R935180, N2-[4-(2,3-Dihydroxypropoxy)phenyl]-5-fluoro-N4-(3-hydroxyphenyl)-2,4-pyrimidinediamine]
1.76 | > 10 |  |  | COc1cc(Nc2nc(Nc3cccc(OCCO)c3)ncc2F)cc(OC)c1 [Compound R935181, N4-(3,5-Dimethoxyphenyl)-5-fluoro-N2-[3-(2-hydroxyethoxy)phenyl]-2,4-pyrimidinediamine]
 |  | > 10 | > 10 | Cn1nc(I)c2cc(Nc3ncc(F)c(Nc4ccc(I)c(O)c4I)n3)ccc21 [Compound R935221, N4-(2,4-Diiodo-3-hydroxypheny)-5-fluoro-N2-(3-iodo-1-methyl-indazoline-5-yl)-2,4-pyrimidinediamine]
 |  | 0.52 | > 10 | COC(=O)Cn1ncc2cc(Nc3ncc(F)c(Nc4ccc(OC(C)C)cc4)n3)ccc21 [Compound R935222, 5-Fluoro-N4-(4-isopropoxyphenyl)-N2-[1-(methoxycarbonyl)methyl-indazoline-5-yl]-2,4-pyrimidinediamine]
 |  | 0.469 | > 10 | COC(=O)Cn1ncc2cc(Nc3ncc(F)c(Nc4ccc5c(c4)OCCO5)n3)ccc21 [Compound R935223, N4-(3,4-Ethylenedioxyphenyl)-5-fluoro-N2-[1-(methoxycarbonyl)methyl-indazoline-5-yl]-2,4-pyrimidinediamine]

IC50 ([1]; Homo sapiens, Mast cell) [µM] | IC50 ([2]; Homo sapiens, Mast cell) [µM] | IC50 [1] [µM] | IC50 [2] [µM] | Structure (SMILES)
 |  | 4.58 | > 10 | CNC(=O)Cn1ncc2ccc(Nc3nc(Nc4ccc(OC(C)C)cc4)ncc3F)cc21 [Compound R935224, 5-Fluoro-N2-(4-isopropoxyphenyl)-N4-[1-(N-methylaminocarbonyl)methyl-indazoline-6-yl]-2,4-pyrimidinediamine]
 |  | 6.5 | > 10 | CNC(=O)Cn1ncc2ccc(Nc3nc(Nc4ccc5c(c4)OCCO5)ncc3F)cc21 [Compound R935225, N2-(3,4-Ethylenedioxyphenyl)-5-fluoro-N4-[1-(N-methylaminocarbonyl)methyl-indazoline-6-yl]-2,4-pyrimidinediamine]
 |  | 0.24 | > 10 | COC(=O)Cn1ncc2cc(Nc3ncc(F)c(Nc4cccc(O)c4)n3)ccc21 [Compound R935237, 5-Fluoro-N4-(3-hydroxyphenyl)-N2-[1-(methoxycarbonyl)methyl-indazoline-5-yl]-2,4-pyrimidinediamine]
 |  | 1.85 | > 10 | OCCn1ncc2ccc(Nc3ncc(F)c(Nc4ccc5cnn(CCO)c5c4)n3)cc21 [Compound R935238, N2,N4-Bis[1-(2-hydroxyethyl)indazoline-6-yl]-5-fluoro-2,4-pyrimidinediamine]
22.9 | 8.9 |  |  | Fc1cnc(Nc2ccc3c(c2)OCCO3)nc1Nn1cccc1 [Compound R935277, N2-(3,4-Ethylenedioxyphenyl)-5-Fluoro-N4-(1H-pyrrol-1-yl)-2,4-pyrimidinediamine]
4.75 | > 10 |  |  | Oc1cccc(Nc2ncc(F)c(Nn3cccc3)n2)c1 [Compound R935278, 5-Fluoro-N2-(3-hydroxyphenyl)-N4-(1H-pyrrol-1-yl)-2,4-pyrimidinediamine]
 |  | > 10 | > 10 | COc1ccc(Nc2ncc([N+](=O)[O-])c(Nc3ccc(OC)c(OC)c3)n2)cc1OC [Compound R940089, N2,N4-Bis-(3,4-dimethoxypenyl)-5-nitro-2,4-pyrimidinediamine]
 |  | > 10 | > 10 | CCOc1ccc(Nc2ncc([N+](=O)[O-])c(Nc3ccc(OCC)cc3)n2)cc1 [Compound R940090, N2,N4-Bis-(4-ethoxypenyl)-5-nitro-2,4-pyrimidinediamine]
> 10 | > 10 |  |  | O=[N+]([O-])c1cnc(Nc2ccc3c(c2)OCCO3)nc1Nc1ccc2c(c1)OCCO2 [Compound R940095, N2,N4-Bis-(3,4-ethylenedioxyphenyl)-5-nitro-2,4-pyrimidinediamine]
> 10 | > 10 |  |  | O=[N+]([O-])c1cnc(Nc2ccc3c(c2)OC(F)(F)O3)nc1Nc1ccc2c(c1)OC(F)(F)O2 [Compound R940100, N2,N4-Bis-(2,2-difluoro-1,3-benzodioxol-5-yl)-5-nitro-2,4-pyrimidinediamine]
0.845 | > 10 |  |  | Oc1c(Cl)cc(Nc2ncc(F)c(Nc3cc(Cl)c(O)c(Cl)c3)n2)cc1Cl [Compound R940215, N2,N4-Bis-(3,5-dichloro-4-hydroxyphenyl)-5-fluoro-2,4-pyrimidinediamine]
> 10 | > 10 |  |  | Cc1c(O)ccc(Nc2ncc(F)c(Nc3ccc(O)c(C)c3C)n2)c1C [Compound R940217, N2,N4-Bis-(2,3-dimethyl-4-hydroxyphenyl)-5-fluoro-2,4-pyrimidinediamine]
> 10 | > 10 |  |  | CC(=O)Nc1ccc(Nc2ncc(F)c(Nc3ccc(NC(C)=O)cc3)n2)cc1 [Compound R940222, N2,N4-Bis-(4-Acetamidophenyl)-5-fluoro-2,4-pyrimidinediamine]
0.8 | > 10 |  |  | Cc1cc(Nc2nc(Nc3cccc(O)c3)ncc2F)cc(Cl)c1O [Compound R940235, N4-(3-Chloro-4-hydroxy-5-methylphenyl)-5-fluoro-N2-(3-hydroxyphenyl)-2,4-pyrimidinediamine]
0.667 | > 10 |  |  | CC(C)(C)c1cccc(Nc2ncc(F)c(Nc3cccc(O)c3)n2)c1 [Compound R940257, N2-(3-tert-Butylphenyl)-5-fluoro-N4-(3-hydroxyphenyl)-2,4-pyrimidinediamine]
1.13 | > 10 |  |  | COc1ccc(Nc2nc(Nc3cccc(C(C)(C)C)c3)ncc2F)cc1OC [Compound R940260, N2-(3-tert-Butylphenyl)-N4-(3,4-dimethoxyphenyl)-5-fluoro-2,4-pyrimidinediamine]
> 10 | > 10 |  |  | Oc1cccc(Nc2nc(NCCN3CCN(Cc4ccccc4)CC3)ncc2F)c1 [Compound R940261, N2-[2-(N-Benzylpiperazino)ethyl]-5-fluoro-N4-(3-hydroxyphenyl)-2,4-pyrimidinediamine]
